Measurements published in publication PMC8696980, “Isolation, semi-synthesis, docking-based prediction, and bioassay-based activity of Dolichandrone spathacea iridoids: new catalpol derivatives as glucosidase inhibitors” (RSC Advances, 2021).
Like-named read-outs stand apart in the source and are kept apart here.

Target: T1, α-glucosidase (Saccharomyces cerevisiae, UniProt P53341)
T1 construct: purchased Sigma-Aldrich G0660
Experiment: biochemical
Type: biochemical
Settings: 37 °C, 30 minutes, pH 6.8
Protocol: All analytically graded reagents were purchased from either Sigma-Aldrich or Merck & Co. and used without further purification. Solvents for column chromatography were distilled before use. Melting points (in °C) were determined on a Thermo Mel-temp 3.0 (USA). Infrared (IR) spectra were recorded on an IMPACT 410 Nicolet Spectrometer. ESI-MS spectra were obtained from an 1100 Agilent LC/MS ion Trap. 1D (^1H, ^13C and DEPT) and 2D (HSQC, HMBC, COSY, NOESY) NMR spectra were recorded on a Bruker Avance 500 MHz using tetramethylsilane (TMS) as the internal standard for ^1H and solvent signal for ^13C NMR. Thin-layer chromatography (TLC) was carried out on a pre-coated silica gel 60 F254 (Merck & Co.), visualised under ultraviolet (UV) radiation at λmax 254 nm, and stained by a solution of 1% (w/w) vanillin in sulfuric acid. Column chromatography (CC) was performed on silica gel 300–400 mesh (Merck & Co.). Enzyme α-glucosidase was purchased from Sigma-Aldrich under the name code G0660, detected by a Biotek Epoch 2 microplate readers (USA).
Each assay was performed on 96 well-plates (200 μL per well). The test samples were dissolved in DMSO 10% and further diluted to the concentrations: 1024, 256, 64, 16, 4, 1 μg.mL^−1. Each concentration of the test sample (10 μL) was incubated at 37 °C with phosphate buffer 100 mM (pH 6.8, 40 μL), α-glucosidase 0.4 U mL^−1 (25 μL), p-nitrophenyl α-D-glucopyranoside 2.5 mM (25 μL). After 30 minutes, the reaction was terminated by adding 100 μL of 0.1 M Na2CO3 solution. The enzyme activities were determined by measuring the absorbance at λmax 410 nm. […] Percentage of inhibition was calculated as followed:[31] [drawing 1]

[1] = IC50 (α-glucosidase inhibitory activity)

T1 sequence (P53341 whole entry): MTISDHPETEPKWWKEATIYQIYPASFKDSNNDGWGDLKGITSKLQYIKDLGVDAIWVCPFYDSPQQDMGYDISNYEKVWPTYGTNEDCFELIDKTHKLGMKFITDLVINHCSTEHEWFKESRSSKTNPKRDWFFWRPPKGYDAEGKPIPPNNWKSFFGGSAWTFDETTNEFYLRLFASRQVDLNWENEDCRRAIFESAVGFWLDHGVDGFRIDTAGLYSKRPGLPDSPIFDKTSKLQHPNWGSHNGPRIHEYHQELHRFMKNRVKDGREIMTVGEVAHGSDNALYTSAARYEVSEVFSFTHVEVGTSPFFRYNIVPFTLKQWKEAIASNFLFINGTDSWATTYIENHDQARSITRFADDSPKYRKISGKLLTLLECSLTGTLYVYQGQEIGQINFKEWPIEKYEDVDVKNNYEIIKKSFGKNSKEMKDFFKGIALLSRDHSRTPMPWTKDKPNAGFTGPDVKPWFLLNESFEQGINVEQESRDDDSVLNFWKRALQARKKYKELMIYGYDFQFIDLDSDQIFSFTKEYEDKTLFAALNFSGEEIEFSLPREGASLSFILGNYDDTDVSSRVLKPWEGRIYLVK

IC50 (read-out: IC50 (α-glucosidase inhibitory activity)) | SMILES | IC50 [1] | IC50 (α-glucosidase inhibitory activity)
– | COc1ccc(C=CC(=O)OC2C3C=COC(OC4OC(CO)C(O)C(O)C4O)C3C3(CO)OC23)cc1 (stereo not shown) [Compound 1, 6-O-[(E)-4-methoxycinnamoyl]catalpol] | 24.9 µM | –
– | COc1ccc(C=CC(=O)OC2C3C=COC(OC4OC(CO)C(O)C(O)C4O)C3C3(CO)OC23)cc1OC (stereo not shown) [Compound 2, 6-O-[(E)-3,4-dimethoxycinnamoyl]catalpol] | 7.24 µM | –
– | COc1ccc(CCC(=O)OC2C3C=COC(OC4OC(CO)C(O)C(O)C4O)C3C3(CO)OC23)cc1 (stereo not shown) [Compound 3, 6-O-(4-methoxyphenylpropanoyl)catalpol] | > 390 µM | inactive
– | COc1ccc(CCC(=O)OC2C3C=COC(OC4OC(CO)C(O)C(O)C4O)C3C3(CO)OC23)cc1OC (stereo not shown) [Compound 4, 6-O-(3,4-dimethoxyphenylpropanoyl)catalpol] | > 390 µM | inactive
– | COc1ccc(CCC(=O)OC2C3C=COC(OC4OC(COC(C)=O)C(OC(C)=O)C(OC(C)=O)C4OC(C)=O)C3C3(COC(C)=O)OC23)cc1OC (stereo not shown) [Compound 5, 6-O-(3,4-dimethoxyphenylpropanoyl)catalpolpentaacetate] | > 390 µM | inactive
– | COc1ccc(C=CC(=O)OC2C3C=COC(OC4OC(COC(c5ccccc5)(c5ccccc5)c5ccccc5)C(O)C(O)C4O)C3C3(COC(c4ccccc4)(c4ccccc4)c4ccccc4)OC23)cc1OC (stereo not shown) [Compound 6, 6-O-[(E)-3,4-dimethoxy]catalpol-10,6′-O-ditriphenylmethyl] | 225 µM | –
– | COc1ccc(C=CC(=O)OC2C3C=COC(OC4OC(COC(C)=O)C(OC(C)=O)C(OC(C)=O)C4OC(C)=O)C3C3(COC(C)=O)OC23)cc1 (stereo not shown) [Compound 7, minecoside pentaacetate] | 168 µM | –
– | COc1ccc(C=CC(=O)OC2C3C=COC(OC4OC(COC(C)=O)C(OC(C)=O)C(OC(C)=O)C4OC(C)=O)C3C3(COC(C)=O)OC23)cc1OC (stereo not shown) [Compound 8, 6-O-[(E)-3,4-dimethoxycinnamoyl]catalpolpentaacetate] | > 390 µM | inactive
– | COc1ccc(C=CC(=O)OC2C3C=COC(OC4OC5COC(C)(C)OC5C(O)C4O)C3C3(CO)OC23)cc1 (stereo not shown) [Compound 9, 6-O-[(E)-4-methoxycinnamoyl]catalpol-4′,6′-acetonide] | > 390 µM | –
– | CC(=CCO)CCC=C(C)C(=O)OC1C2C=COC(OC3OC(CO)C(O)C(O)C3O)C2C2(CO)OC12 (stereo not shown) [Compound 10, nemoroside] | 0.05 µM | –
– | COc1ccc(C=CC(=O)OC2C3C=COC(OC4OC(COC(C)=O)C(OC(C)=O)C(OC(C)=O)C4OC(C)=O)C3C3(COC(C)=O)OC23)cc1OC(C)=O (stereo not shown) [Compound 11, 6-O-[(E)-4-methoxycinnamoyl]catalpolhexaacetate] | > 390 µM | inactive
– | CC(=O)OCC1OC(OC2OC=CC3C(OC(=O)C=Cc4ccc(OC(C)=O)cc4)C4OC4(COC(C)=O)C23)C(OC(C)=O)C(OC(C)=O)C1OC(C)=O (stereo not shown) [Compound 12, specioside hexaacetate] | 71.6 µM | –
– | COc1ccc(/C=C/C(=O)O[C@H]2[C@@H]3C=CO[C@@H](O[C@@H]4O[C@H](CO)[C@@H](O)[C@H](O)[C@H]4O)[C@@H]3[C@@]3(CO)O[C@@H]23)cc1O [Compound 13, minecoside] | 20.8 µM | –
8.65 µM | O=C(/C=C/c1ccc(O)cc1)O[C@H]1[C@@H]2C=CO[C@@H](O[C@@H]3O[C@H](CO)[C@@H](O)[C@H](O)[C@H]3O)[C@@H]2[C@@]2(CO)O[C@@H]12 [Compound 14, specioside] | – | –
